Experimental data taken from article PMC9268615, “Identification of Anti-Proliferative Compounds from Genista monspessulana Seeds through Covariate-Based Integration of Chemical Fingerprints and Bioactivity Datasets” (Molecules, 2022).
Where “and” joins values, the source holds several entries; their conditions need not be identical. Equal values may be shown once. Read-outs that look alike come from different tables or passages of the source.

Legend:
[1] = system: PC-3 (human prostate adenocarcinoma); test: MTT cell viability assay, PC-3; assay type: cell-based; settings: for IC50: pure compounds, MTT, 48 h incubation
Method: (§1) Human prostatic adenocarcinoma (PC-3, ATCC CRL-7934), human lung adenocarcinoma (A549, ATCC CCL-185), and human cervical carcinoma (SiHa, ATCC HTB-35) cancer cell lines and normal mouse fibroblasts (L929, ATCC CRL-6364) were maintained in a humidified atmosphere with 5% CO2 at 37 °C, and grown as a monolayer culture in Dulbecco’s Modified Eagle Medium (DMEM) medium with 10% (v/v) fetal bovine serum (FBS), 1% (v/v) penicillin, and 1% (v/v) streptomycin. The anti-proliferative effects of G. monspessulana extracts and isolated compounds were measured according to a reported method. Cell suspension (100 µL, 5 × 10^3 cells/well) was inoculated in 96-well plates and cultured for 24 h. After that, the culture medium was replaced with a serum-free medium (100 µL) containing different concentrations of treatments (0.8–500 µg/mL for extracts and 0.16–100 µg/mL for pure compounds). Extracts and compounds were measured in triplicate. A PBS-containing free medium was used as a blank, 1% (w/v) bovine serum albumin-amended medium as negative control (100% survival), and curcumin (0.16–100 µg/mL) was used as the positive control. After 48 h of incubation, the cell viability was assessed by adding MTT (10 µL, 5 mg/mL) to each well, and the plates were subsequently incubated under 5% CO2 at 37 °C for 3 h. Formazan crystals were dissolved with 100 µL of DMSO. Absorbance was measured at 570 nm using a Varioskan LUX 96-well plate reader (Thermo Fisher Scientific, Waltham, MA, USA). The anti-proliferative effects were expressed as half-maximal inhibitory concentration (IC50) in µg/mL (extracts) and µM (compounds). The IC50 values were calculated from the dose-response curves through non-linear regression using GraphPad 5.0 (GraphPad Software, San Diego, CA, USA).

[2] = system: L929 (normal mouse fibroblasts); test: MTT cell viability assay, L929 fibroblasts; assay type: cell-based; settings: 48 h incubation; for IC50: Mus musculus, L929, pure compounds; for IC50 L929: pure compounds
Method: as §1

[3] = system: SiHa (human cervical carcinoma); test: MTT cell viability assay, SiHa; assay type: cell-based; settings: for IC50: Homo sapiens, SiHa, pure compounds, MTT, 48 h incubation
Method: as §1

[4] = system: A549 (human lung carcinoma); test: MTT cell viability assay, A549; assay type: cell-based; settings: for IC50: Homo sapiens, A549, pure compounds, MTT, 48 h incubation
Method: as §1

[5] = system: SMMC-7721 (hepatocellular carcinoma) cells; parameters: method as in PMID 29330507; settings: cited from earlier work
MCF-7 cell line = settings: cited from earlier work
FaDu cell line = settings: cited from earlier work
MDA-MB cell line = settings: cited from earlier work
A549 cell line = settings: read-out: IC50 A549; cytotoxic through apoptosis induction; cited from earlier work
[6] = system: HepG2 (human hepatocellular carcinoma) cell line; settings: cited from earlier work
PC-3 = system: PC-3; parameters: method as in doi:10.1590/S0103-50532012000300015; settings: cited from earlier work
[7] = system: various cancer cell lines (KB, P-388, HL-60, K-562, MOLT-4, H2108, H1299, MRC-5, 786-O, Caki1, SN12C, SH-SY5Y, A375, SK-MEL-1, Eca109, KYSE30, HCT-116, SW480); parameters: method as in PMID 31551770; settings: cytotoxicity; cited from earlier work
HL-60 cell line [8] = system: HL-60 cell line; parameters: method as in PMID 16887297; settings: cytotoxic activity; cited from earlier work
K-562 cell line = system: K-562 cell line; parameters: method as in PMID 23850732; settings: cited from earlier work
HL-60 cell line [9] = system: HL-60 cell line; parameters: method as in PMID 23850732; settings: cited from earlier work
MOLT-4 cell line = system: MOLT-4 cell line; parameters: method as in PMID 23850732; settings: cited from earlier work
[10] = system: MDA-MB-231 (human breast cancer cell line); parameters: method as in PMID 30467293; settings: vs cytisine and (−)-maackiain; cited from earlier work
[11] = system: MCF-7 (human breast cancer cell line); parameters: method as in PMID 30467293; settings: vs cytisine and (−)-maackiain; cited from earlier work

Molecule	IC50 ([1]; Homo sapiens, 48 h) [µM]	IC50 [2] [µM]	IC50 [3] [µM]	IC50 [4] [µM]	also measured
O=C1CCC=C2C3CC(CN12)C1CCCCN1C3 (single isomer, unassigned; (+)) [Compound 7, (+)-5,6-dehydrolupanine]	31.5	85.9	> 406	> 406	
CN1CC2CC(C1)c1cccc(=O)n1C2 (single isomer, unassigned; (-)) [Compound 5, (–)-N-methylcytisine]	28.4	91.3	> 490	36.3	proliferation of SMMC-7721 cells [5]: can inhibit the proliferation
O=c1cccc2n1C[C@@H]1CNC[C@H]2C1 [Compound 1, (–)-cytisine]	< 18.6	103	357	42.5	effect on MCF-7 cell line (MCF-7 cell line): not affected; IC50 [1]: 15.8 µM; effect on FaDu cell line (FaDu cell line): not affected; effect on MDA-MB cell line (MDA-MB cell line): not affected; IC50 (A549 cell line): 26.8 µM; effect on HepG2 cell line [6]: inducing mitochondrial-mediated apoptosis
CC1(C)C=Cc2c(cc3occ(-c4ccc(O)cc4)c(=O)c3c2O)O1 [Compound 2, alpinumisoflavone]	< 18.6	> 297	19.6	> 303	IC50 [1]: 18.6 µM; IC50 (PC-3): < 30 µM; IC50 L929 [2]: inactive; IC50 [7]: < 70 µM
O=C1[C@@H]2C[C@H](CN3CCCC[C@@H]23)[C@H]2CCCCN12 [Compound 3, (+)-aphylline]	21.3	22.3	> 403	> 403	
O=c1cccc2n1C[C@H]1C[C@@H]2CN2CCCC[C@H]12 [Compound 4, (–)-anagyrine]		36.5	> 409	> 409	IC50 ([1]; Homo sapiens): 33.5 µM; IC50 (HL-60 cell line [8]): 18 µM
CC(C)=CCc1c(O)cc2occ(-c3ccc(O)cc3)c(=O)c2c1O [Compound 6, wighteone]	34.3	> 296	> 296	> 296	IC50 (K-562 cell line): > 70 µM; IC50 L929 [2]: inactive; IC50 (HL-60 cell line [9]): > 70 µM; IC50 (MOLT-4 cell line): > 70 µM
CC1(C)C=Cc2c(cc3occ(-c4ccc(O)c(CN5C[C@@H]6C[C@H](C5)c5cccc(=O)n5C6)c4)c(=O)c3c2O)O1 [Compound 8, (–)-3′-(N-cytisine)methylalpinumisoflavone]		385	17.5	46.8	IC50 ([1]; Homo sapiens): 10.1 µM; selectivity index (SI = IC50 normal cells/IC50 cancer cells) PC-3 ([1]; L929 vs PC-3): 38.1 and > 30; selectivity index (SI = IC50 normal cells/IC50 cancer cells) SiHa ([3]; L929 vs SiHa): 22.0; selectivity index (SI = IC50 normal cells/IC50 cancer cells) A549 ([4]; L929 vs A549): 8.2
COc1cc(/C=C/C(=O)CC(=O)/C=C/c2ccc(O)c(OC)c2)ccc1O [curcumin, reference compound]	9.5	105	6.5	8.4	
tonkinensine B					fold better activity than respective precursors, MDA-MB-231 [10]: 2–3 fold; fold better activity than respective precursors, MCF-7 [11]: 2–3 fold
